{"source": "paper PMC6152052", "about": "“Molecular Structure–Affinity Relationship of Flavonoids in Lotus Leaf (Nelumbo nucifera Gaertn.) on Binding to Human Serum Albumin and Bovine Serum Albumin by Spectroscopic Method” (Molecules : A Journal of Synthetic Chemistry and Natural …, 2017)", "key": {"[1]": {"target": "T1, bovine serum albumin (BSA) (Bos taurus, UniProt P02769)", "T1 construct": "gene ALB", "T1 sequence (P02769 25-607)": "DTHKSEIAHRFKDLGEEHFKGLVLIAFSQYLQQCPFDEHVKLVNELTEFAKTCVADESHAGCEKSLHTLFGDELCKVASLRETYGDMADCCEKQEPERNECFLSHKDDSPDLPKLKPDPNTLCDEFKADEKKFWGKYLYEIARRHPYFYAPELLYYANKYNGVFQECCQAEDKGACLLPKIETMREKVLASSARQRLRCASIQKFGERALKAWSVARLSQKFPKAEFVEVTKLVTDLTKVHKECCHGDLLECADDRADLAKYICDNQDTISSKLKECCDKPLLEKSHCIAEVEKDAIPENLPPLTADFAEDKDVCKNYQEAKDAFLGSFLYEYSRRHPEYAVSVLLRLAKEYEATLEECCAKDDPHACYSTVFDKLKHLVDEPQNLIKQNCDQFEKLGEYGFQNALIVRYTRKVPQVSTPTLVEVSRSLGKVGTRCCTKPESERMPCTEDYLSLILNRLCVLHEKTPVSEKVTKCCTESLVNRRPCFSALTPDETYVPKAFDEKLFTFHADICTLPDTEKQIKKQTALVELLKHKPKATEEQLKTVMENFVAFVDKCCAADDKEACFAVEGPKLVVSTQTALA", "assay": "intrinsic fluorescence quenching, double-log plot", "format": "binding", "description": "intrinsic fluorescence quenching, double-log plot on bovine serum albumin (BSA)"}, "[2]": {"target": "T2, human serum albumin (HSA) (Homo sapiens, UniProt P02768)", "T2 construct": "gene ALB; 585 residues, 66,500 Da, single non-glycosylated chain", "T2 sequence (P02768 25-609)": "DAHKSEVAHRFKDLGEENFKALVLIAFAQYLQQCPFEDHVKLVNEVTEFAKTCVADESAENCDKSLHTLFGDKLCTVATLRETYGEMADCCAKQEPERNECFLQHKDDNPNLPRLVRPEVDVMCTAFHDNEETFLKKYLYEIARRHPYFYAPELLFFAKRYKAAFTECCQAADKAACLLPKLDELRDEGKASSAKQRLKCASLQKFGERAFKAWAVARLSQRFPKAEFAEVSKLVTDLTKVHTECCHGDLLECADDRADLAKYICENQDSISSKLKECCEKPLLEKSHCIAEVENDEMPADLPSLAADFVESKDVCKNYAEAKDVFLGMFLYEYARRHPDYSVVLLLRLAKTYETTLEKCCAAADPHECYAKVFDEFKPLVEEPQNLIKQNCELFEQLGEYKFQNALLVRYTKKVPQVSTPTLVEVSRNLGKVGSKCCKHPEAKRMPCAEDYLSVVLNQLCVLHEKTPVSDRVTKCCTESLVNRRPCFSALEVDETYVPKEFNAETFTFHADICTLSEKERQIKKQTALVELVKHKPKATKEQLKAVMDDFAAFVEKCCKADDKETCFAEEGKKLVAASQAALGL", "assay": "intrinsic fluorescence quenching, double-log plot", "format": "binding", "description": "intrinsic fluorescence quenching, double-log plot on human serum albumin (HSA)"}}, "note": "Read-outs that look alike come from different tables or passages of the source."}
{"compound": "O=c1cc(-c2ccc(O)cc2)oc2cc(O)cc(O)c12", "note": "[compound 8, apigenin]", "values": [{"measurement": "BSA Affinity / logKa", "setting": "[1]; PBS pH 7.4, 300.15 K, ex 280 nm, em 341 nm, n = 0.870, double-log", "result": "7.086 log (L/mol)"}, {"measurement": "HSA Affinity / logKa", "setting": "[2]; PBS pH 7.4, 300.15 K, ex 280 nm, em 336 nm, n = 0.962, double-log", "result": "6.655 log (L/mol)"}]}
{"compound": "O=c1cc(-c2ccc(O)c(O)c2)oc2cc(O)cc(O)c12", "note": "[compound 6, luteolin]", "values": [{"measurement": "BSA Affinity / logKa", "setting": "[1]; PBS pH 7.4, 300.15 K, ex 280 nm, em 341 nm, n = 0.923, double-log", "result": "7.110 log (L/mol)"}, {"measurement": "HSA Affinity / logKa", "setting": "[2]; PBS pH 7.4, 300.15 K, ex 280 nm, em 336 nm, n = 0.904, double-log", "result": "7.064 log (L/mol)"}]}
{"compound": "O=C1C[C@@H](c2ccc(O)cc2)Oc2cc(O)cc(O)c21", "note": "[compound 9, naringenin]", "values": [{"measurement": "BSA Affinity / logKa", "setting": "[1]", "result": "6.982 log (L/mol)"}, {"measurement": "HSA Affinity / logKa", "setting": "[2]", "result": "6.493 log (L/mol)"}]}
{"compound": "O=c1c(O[C@@H]2O[C@H](CO)[C@@H](O)[C@H](O)[C@H]2O)c(-c2ccc(O)cc2)oc2cc(O)cc(O)c12", "note": "[compound 1, astragalin]", "values": [{"measurement": "BSA Affinity / logKa", "setting": "[1]; PBS pH 7.4, 300.15 K, ex 280 nm, em 341 nm, n = 0.963, double-log", "result": "6.359 log (L/mol)"}, {"measurement": "HSA Affinity / logKa", "setting": "[2]; PBS pH 7.4, 300.15 K, ex 280 nm, em 336 nm, n = 0.994, double-log", "result": "6.234 log (L/mol)"}]}
{"compound": "O=c1c(O)c(-c2ccc(O)c(O)c2)oc2cc(O)cc(O)c12", "note": "[compound 7, quercetin]", "values": [{"measurement": "BSA Affinity / logKa", "setting": "[1]", "result": "7.299 log (L/mol)"}, {"measurement": "HSA Affinity / logKa", "setting": "[2]", "result": "7.089 log (L/mol)"}]}
{"compound": "O=C1c2c(O)cc(O)cc2O[C@H](c2ccc(O)c(O)c2)[C@H]1O", "note": "[compound 5, taxifolin]", "values": [{"measurement": "BSA Affinity / logKa", "setting": "[1]", "result": "7.067 log (L/mol)"}, {"measurement": "HSA Affinity / logKa", "setting": "[2]", "result": "6.748 log (L/mol)"}]}
{"compound": "O=c1c(O[C@@H]2O[C@H](CO)[C@H](O)[C@H](O)[C@H]2O)c(-c2ccc(O)c(O)c2)oc2cc(O)cc(O)c12", "note": "[compound 3, hyperoside]", "values": [{"measurement": "BSA Affinity / logKa", "setting": "[1]; PBS pH 7.4, 300.15 K, ex 280 nm, em 341 nm, n = 0.950, double-log", "result": "6.891 log (L/mol)"}, {"measurement": "HSA Affinity / logKa", "setting": "[2]; PBS pH 7.4, 300.15 K, ex 280 nm, em 336 nm, n = 0.960, double-log", "result": "6.802 log (L/mol)"}]}
{"compound": "COc1cc(-c2oc3cc(O)cc(O)c3c(=O)c2O)ccc1O", "note": "[compound 11, isorhamnetin]", "values": [{"measurement": "BSA Affinity / logKa", "setting": "[1]; PBS pH 7.4, 300.15 K, ex 280 nm, em 341 nm, n = 0.941, double-log", "result": "6.828 log (L/mol)"}, {"measurement": "HSA Affinity / logKa", "setting": "[2]; PBS pH 7.4, 300.15 K, ex 280 nm, em 336 nm, n = 0.923, double-log", "result": "6.798 log (L/mol)"}]}
{"compound": "O=c1c(O)c(-c2ccc(O)cc2)oc2cc(O)cc(O)c12", "note": "[compound 10, kaempferol]", "values": [{"measurement": "BSA Affinity / logKa", "setting": "[1]; PBS pH 7.4, 300.15 K, ex 280 nm, em 341 nm, n = 0.911, double-log", "result": "7.106 log (L/mol)"}, {"measurement": "HSA Affinity / logKa", "setting": "[2]; PBS pH 7.4, 300.15 K, ex 280 nm, em 336 nm, n = 0.918, double-log", "result": "6.830 log (L/mol)"}]}
{"compound": "O=c1c(O[C@@H]2O[C@H](CO)[C@@H](O)[C@H](O)[C@H]2O)c(-c2ccc(O)c(O)c2)oc2cc(O)cc(O)c12", "note": "[compound 4, isoquercitrin]", "values": [{"measurement": "BSA Affinity / logKa", "setting": "[1]; PBS pH 7.4, 300.15 K, ex 280 nm, em 341 nm, n = 0.938, double-log", "result": "7.095 log (L/mol)"}, {"measurement": "HSA Affinity / logKa", "setting": "[2]; PBS pH 7.4, 300.15 K, ex 280 nm, em 336 nm, n = 0.936, double-log", "result": "6.584 log (L/mol)"}]}
{"compound": "C[C@@H]1O[C@@H](OC[C@H]2O[C@@H](Oc3c(-c4ccc(O)c(O)c4)oc4cc(O)cc(O)c4c3=O)[C@H](O)[C@@H](O)[C@@H]2O)[C@H](O)[C@H](O)[C@H]1O", "note": "[compound 2, rutin]", "values": [{"measurement": "BSA Affinity / logKa", "setting": "[1]; PBS pH 7.4, 300.15 K, ex 280 nm, em 341 nm, n = 0.962, double-log", "result": "6.686 log (L/mol)"}, {"measurement": "HSA Affinity / logKa", "setting": "[2]; PBS pH 7.4, 300.15 K, ex 280 nm, em 336 nm, n = 0.992, double-log", "result": "5.896 log (L/mol)"}]}
